Where a name gives a salt, the structure may show the parent alone.
Key:
[1] = target: isolated recombinant JAK1 kinase domain (Homo sapiens (Human), UniProt P23458); test: JAK1 enzyme assay (Caliper LabChip, peptide phosphorylation); assay type: biochemical; conditions: isolated recombinant JAK1 kinase domain, 25 μM ATP
[2] = tested on: JAK1-dependent STAT6 phosphorylation downstream of IL-13 stimulation in TF-1 human erythroleukemia cells; test: JAK1 pathway assay in TF-1 cells (IL-13-pSTAT6, MSD); assay type: cell-based; conditions: Homo sapiens, TF-1, TF-1 cells, read-out: IL13-pSTAT6 EC50_TF-1
Procedure, shortened: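 Inhibitors were added to TF-1 cells (GM-CSF-starved, serum-free) for 30 min or to BEAS-2B cells (complete medium) for 1 hr at 37° C. MSD detected pSTAT6.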

[3] = target: isolated recombinant JAK2 kinase domain (Homo sapiens (Human), UniProt O60674); test: JAK2 enzyme assay (Caliper LabChip, peptide phosphorylation); assay type: biochemical; conditions: 25 μM ATP
isolated recombinant JAK2 kinase domain, sequence (O60674 849-1124): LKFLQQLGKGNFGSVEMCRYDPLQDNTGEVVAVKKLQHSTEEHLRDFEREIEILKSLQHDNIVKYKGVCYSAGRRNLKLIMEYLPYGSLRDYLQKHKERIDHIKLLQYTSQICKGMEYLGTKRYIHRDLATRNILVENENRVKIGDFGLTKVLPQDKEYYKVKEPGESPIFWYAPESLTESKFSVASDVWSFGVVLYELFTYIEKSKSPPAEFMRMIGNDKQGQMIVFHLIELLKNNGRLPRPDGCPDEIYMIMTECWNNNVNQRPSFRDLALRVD

isolated recombinant JAK1 kinase domain, sequence (P23458 875-1153): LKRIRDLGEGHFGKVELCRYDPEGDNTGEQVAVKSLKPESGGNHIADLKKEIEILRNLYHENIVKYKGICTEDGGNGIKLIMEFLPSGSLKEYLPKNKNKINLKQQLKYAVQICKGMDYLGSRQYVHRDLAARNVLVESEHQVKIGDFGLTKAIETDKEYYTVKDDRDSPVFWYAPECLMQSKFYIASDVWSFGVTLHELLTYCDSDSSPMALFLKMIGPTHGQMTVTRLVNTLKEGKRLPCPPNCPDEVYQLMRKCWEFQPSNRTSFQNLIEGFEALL

Row | SMILES | Ki [1] [nM] | EC50 [2] [nM] | Ki [3] [nM]
1 | CN1C[C@@H]2CN(C(=O)Cn3cc(NC(=O)c4cnn5ccc(N)nc45)c(-c4cc(Cl)ccc4OC(F)F)n3)C[C@@H]2C1 [Example 7, 5-Amino-pyrazolo[1,5-a]pyrimidine-3-carboxylic acid {3-(5-chloro-2-difluoromethoxy-phenyl)-1-[2-((3aR,6aS)-5-methyl-hexahydro-pyrrolo[3,4-c]pyrrol-2-yl)-2-oxo-ethyl]-1H-pyrazol-4-yl}-amide hydrochloride] | 1.1 | 1040 | 0.96
2 | O=C(Nc1cn(CC(=O)N2CCC(N(CCc3ccccc3)CC(F)(F)F)CC2)nc1-c1cc(Cl)ccc1OC(F)F)c1cnn2cccnc12 [Example 103, N-[3-[5-chloro-2-(difluoromethoxy)phenyl]-1-[2-oxo-2-[4-[2-phenylethyl(2,2,2-trifluoroethyl)amino]-1-piperidyl]ethyl]pyrazol-4-yl]pyrazolo[1,5-a]pyrimidine-3-carboxamide] | 3.98 | 265 | 7.95
3 | O=C(Nc1cn(CC(=O)N2C[C@H]3CN(CCCO)C[C@H]3C2)nc1-c1cc(Cl)ccc1OC(F)F)c1cnn2cccnc12 [Example 14, N-[1-[2-[(3aR,6aS)-2-(3-hydroxypropyl)-1,3,3a,4,6,6a-hexahydropyrrolo[3,4-c]pyrrol-5-yl]-2-oxo-ethyl]-3-[5-chloro-2-(difluoromethoxy)phenyl]pyrazol-4-yl]pyrazolo[1,5-a]pyrimidine-3-carboxamide] | 1.14 | 335 | 1.13
4 | CCCCN(CC(F)(F)F)C1CCN(C(=O)Cn2cc(NC(=O)c3cnn4cccnc34)c(-c3cc(Cl)ccc3OC(F)F)n2)CC1 [Example 115, N-[1-[2-[4-[butyl(2,2,2-trifluoroethyl)amino]-1-piperidyl]-2-oxo-ethyl]-3-[5-chloro-2-(difluoromethoxy)phenyl]pyrazol-4-yl]pyrazolo[1,5-a]pyrimidine-3-carboxamide] | 1.28 | 57.7 | 2.48
5 | CN(C)CC1(O)CCN(C(=O)Cn2cc(NC(=O)c3cnn4cccnc34)c(-c3cc(Cl)ccc3OC(F)F)n2)CC1 [Example 74, N-[3-[5-chloro-2-(difluoromethoxy)phenyl]-1-[2-[4-[(dimethylamino)methyl]-4-hydroxy-1-piperidyl]-2-oxo-ethyl]pyrazol-4-yl]pyrazolo[1,5-a]pyrimidine-3-carboxamide] | 0.97 | 38.5 | 2.42
6 | CN(CCOc1ccccc1Cl)C1CCN(C(=O)Cn2cc(NC(=O)c3cnn4cccnc34)c(-c3cc(Cl)ccc3OC(F)F)n2)CC1 [Example 106, N-[3-[5-chloro-2-(difluoromethoxy)phenyl]-1-[2-[4-[2-(2-chlorophenoxy)ethyl-methyl-amino]-1-piperidyl]-2-oxo-ethyl]pyrazol-4-yl]pyrazolo[1,5-a]pyrimidine-3-carboxamide] | 1.09 | 15.5 | 2.29
7 | CC(C)(O)CCN1C[C@@H]2CN(C(=O)Cn3cc(NC(=O)c4cnn5cccnc45)c(-c4cc(Cl)ccc4OC(F)F)n3)C[C@@H]2C1 [Example 50, N-[1-[2-[(3aR,6aS)-2-(3-hydroxy-3-methyl-butyl)-1,3,3a,4,6,6a-hexahydropyrrolo[3,4-c]pyrrol-5-yl]-2-oxo-ethyl]-3-[5-chloro-2-(difluoromethoxy)phenyl]pyrazol-4-yl]pyrazolo[1,5-a]pyrimidine-3-carboxamide] | 0.99 | 32 | 0.74
8 | Nc1nn2cccnc2c1C(=O)Nc1cn(CC(=O)N2CCC(CO)CC2)nc1-c1cc(Cl)ccc1OC(F)F [Example 266, 2-amino-N-[3-[5-chloro-2-(difluoromethoxy)phenyl]-1-[2-[4-(hydroxymethyl)-1-piperidyl]-2-oxo-ethyl]pyrazol-4-yl]pyrazolo[1,5-a]pyrimidine-3-carboxamide] | 0.24 | 5.9 | 0.1
9 | O=C(Nc1cn(CC(=O)N2CCC3(CCNC3)CC2)nc1-c1cc(Cl)ccc1OC(F)F)c1cnn2cccnc12 [Example 223, N-[3-[5-chloro-2-(difluoromethoxy)phenyl]-1-[2-(2,8-diazaspiro[4.5]decan-8-yl)-2-oxo-ethyl]pyrazol-4-yl]pyrazolo[1,5-a]pyrimidine-3-carboxamide] | 0.44 | 187 | 0.72
10 | CN1CCCN(C(=O)Cn2cc(NC(=O)c3c(N)nn4cccnc34)c(-c3cc(Cl)ccc3OC(F)F)n2)CC1 [Example 246, 2-amino-N-[3-[5-chloro-2-(difluoromethoxy)phenyl]-1-[2-(4-methyl-1,4-diazepan-1-yl)-2-oxo-ethyl]pyrazol-4-yl]pyrazolo[1,5-a]pyrimidine-3-carboxamide] | 1.08 | 48.8 | 0.57
11 | Nc1nn2cccnc2c1C(=O)Nc1cn(C2CCN(CCCC(=O)NCc3ccccc3)CC2)nc1-c1cc(Cl)ccc1OC(F)F [Example 167, 2-amino-N-[1-[1-[4-(benzylamino)-4-oxo-butyl]-4-piperidyl]-3-[5-chloro-2-(difluoromethoxy)phenyl]pyrazol-4-yl]pyrazolo[1,5-a]pyrimidine-3-carboxamide] | 0.53 | 19.7 | 0.18
12 | CN(C)CC1CCN(C(=O)Cn2cc(NC(=O)c3cnn4cccnc34)c(-c3cc(Cl)ccc3OC(F)F)n2)CC1 [Example 70, N-[3-[5-chloro-2-(difluoromethoxy)phenyl]-1-[2-[4-[(dimethylamino)methyl]-1-piperidyl]-2-oxo-ethyl]pyrazol-4-yl]pyrazolo[1,5-a]pyrimidine-3-carboxamide] | 0.67 | 16.1 | 2.38
13 | CN(C)C1CCN(C(=O)c2nc(-c3cc(Cl)ccc3OC(F)F)c(NC(=O)c3cnn4cccnc34)s2)CC1 [Example 265, N-[4-[5-chloro-2-(difluoromethoxy)phenyl]-2-[4-(dimethylamino)piperidine-1-carbonyl]thiazol-5-yl]pyrazolo[1,5-a]pyrimidine-3-carboxamide] | 3.63 | 22.8 | 4.29
14 | O=C(Nc1cn(CC(=O)N2C[C@H]3CN(CC4CCN(C(=O)C5CCOCC5)CC4)C[C@H]3C2)nc1-c1cc(Cl)ccc1OC(F)F)c1cnn2cccnc12 [Example 35, N-[1-[2-[(3aR,6aS)-2-[[1-(tetrahydropyran-4-carbonyl)-4-piperidyl]methyl]-1,3,3a,4,6,6a-hexahydropyrrolo[3,4-c]pyrrol-5-yl]-2-oxo-ethyl]-3-[5-chloro-2-(difluoromethoxy)phenyl]pyrazol-4-yl]pyrazolo[1,5-a]pyrimidine-3-carboxamide] | 0.51 | 235 | 0.73
15 | O=C(Nc1sc(-c2ccc(CN3CC(F)C3)cc2)nc1-c1cc(Cl)ccc1OC(F)F)c1cnn2cccnc12 [Example 256, N-[4-[5-chloro-2-(difluoromethoxy)phenyl]-2-[4-[(3-fluoroazetidin-1-yl)methyl]phenyl]thiazol-5-yl]pyrazolo[1,5-a]pyrimidine-3-carboxamide] | 1.31 | 92 | 0.95
16 | CC(=O)N1CCC(CN2C[C@@H]3CN(C(=O)Cn4cc(NC(=O)c5cnn6cccnc56)c(-c5cc(Cl)ccc5OC(F)F)n4)C[C@@H]3C2)CC1 [Example 22, N-[1-[2-[(3aS,6aR)-2-[(1-acetyl-4-piperidyl)methyl]-1,3,3a,4,6,6a-hexahydropyrrolo[3,4-c]pyrrol-5-yl]-2-oxo-ethyl]-3-[5-chloro-2-(difluoromethoxy)phenyl]pyrazol-4-yl]pyrazolo[1,5-a]pyrimidine-3-carboxamide] | 0.94 | 158 | 0.95
17 | N#CC1(CN2C[C@@H]3CN(C(=O)Cn4cc(NC(=O)c5cnn6cccnc56)c(-c5cc(Cl)ccc5OC(F)F)n4)C[C@@H]3C2)CCCCC1 [Example 47, N-[1-[2-[(3aS,6aR)-2-[(1-cyanocyclohexyl)methyl]-1,3,3a,4,6,6a-hexahydropyrrolo[3,4-c]pyrrol-5-yl]-2-oxo-ethyl]-3-[5-chloro-2-(difluoromethoxy)phenyl]pyrazol-4-yl]pyrazolo[1,5-a]pyrimidine-3-carboxamide] | 0.33 | 11 | 0.54
18 | NC(=O)CCCN1CCC(n2cc(NC(=O)c3c(N)nn4cccnc34)c(-c3cc(Cl)ccc3OC(F)F)n2)CC1 [Example 162, 2-amino-N-[1-[1-(4-amino-4-oxo-butyl)-4-piperidyl]-3-[5-chloro-2-(difluoromethoxy)phenyl]pyrazol-4-yl]pyrazolo[1,5-a]pyrimidine-3-carboxamide] | 0.59 | 15.4 | 0.18
19 | CN1CCCC(n2cc(NC(=O)c3c(N)nn4cccnc34)c(-c3cc(Cl)ccc3OC(F)F)n2)CC1 (stereo not drawn) [Example 172, 2-amino-N-[3-[5-chloro-2-(difluoromethoxy)phenyl]-1-(1-methylazepan-4-yl)pyrazol-4-yl]pyrazolo[1,5-a]pyrimidine-3-carboxamide] | 0.88 | 15.9 | 0.15
20 | Cc1ccc(CN(C)C2CCN(C(=O)Cn3cc(NC(=O)c4cnn5cccnc45)c(-c4cc(Cl)ccc4OC(F)F)n3)CC2)c(C)c1 [Example 129, N-[3-[5-chloro-2-(difluoromethoxy)phenyl]-1-[2-[4-[(2,4-dimethylphenyl)methyl-methyl-amino]-1-piperidyl]-2-oxo-ethyl]pyrazol-4-yl]pyrazolo[1,5-a]pyrimidine-3-carboxamide] | 1.14 | 14.2 | 3.33
